Measurements reported in patent US8999930B2, “Soluble hydrophobic core carrier compositions for delivery of therapeutic agents, methods of making and using the same” (PharmaIN Corporation, priority 2008, dated 2015).
Like-named read-outs stand apart in the source and are kept apart here. Where a SMILES comes first, the peptide text is derived from it. Bridges are numbered along the chain shown (N, C = ends).

Assay: Binding of load molecules to 20PLPEG555C18 carrier (100 kDa filtration, free load by HPLC, Scatchard plot)
Settings: for binding affinity to carrier, in words: strong = Kd less than 100 uM, carrier 20 kDa polylysine, 55% 5 kDa MPEGsuccinate, remainder stearic acid
[1] = Kd to the 20PLPRG555C18, Table 4, read-out: Dissociation Constant (Kd)

Protocol: Load molecules of various concentrations were added to the tubes so that the corresponding weight of load molecules will be between 2 to 30% of the weight of the carrier. To each tube, 25 ul of 10× Phosphate buffered saline was added and the total volume of the solution was made up to 250 ul. The solutions were incubated for 2 hours, followed by filtration through a 100 kDa molecular weight cut-off filter made up of regenerated cellulose (Microcon Ultracell YM-100; Millipore, Bedford, Mass.). The free unbound load molecules in the filtrate were analyzed by reverse phase HPLC using the conditions described above to generate Table 3. The total amount of load molecule loaded or the control is represented by the filtrate of the solution without the carrier. The amount of load molecules bound to the carrier is represented by the difference in the amount of load molecules between the filtrate without the carrier and the filtrate with the carrier. Prior to this analysis, the background filter binding was determined and accounted for whenever significant filter binding was found.

| Compound | Kd [1] [µM] | Kd (Ten mg/ml (30 uM) of Carrier loaded with various concentration of doxorubicin, read-out: apparent Kd (Scatchard plot)) [µM] | binding affinity to carrier, in words | Kd (Ten mg/ml (30 uM) of Carrier, read-out: Kd (Scatchard plot)) [µM] | Kd (33 mg/ml (10 uM) of Carrier, read-out: Kd (Scatchard plot)) [µM] | binding affinity to carrier, in words (listed as VIP) |
| --- | --- | --- | --- | --- | --- | --- |
| COc1cccc2c1C(=O)c1c(O)c3c(c(O)c1C2=O)C[C@@](O)(C(=O)CO)C[C@@H]3O[C@H]1C[C@H](N)[C@H](O)[C@H](C)O1 [Doxorubicin, reference compound] | > 100 | 315 | did not bind with strong affinity |  |  |  |
| NCCCC[C@H](NC(=O)[C@@H]1CCCN1C(=O)[C@@H]1CSSC[C@H](NC(=O)CNC(=O)CNC(=O)CN)C(=O)N[C@@H](Cc2ccc(O)cc2)C(=O)N[C@@H](Cc2ccccc2)C(=O)N[C@@H](CCC(N)=O)C(=O)N[C@@H](CC(N)=O)C(=O)N1)C(=O)NCC(N)=O [Terlipressin, reference compound] (H-GGGCYFQNCPKG-NH2; disulfide 4-9) | > 100 |  | does not bind Terlipressin with strong affinity |  |  |  |
| Glucagon Like Peptide 2: Glucagon Like Peptide 2 (GLP-2; 3 kDa), load molecule | < 0.5 |  |  |  |  |  |
| Human Growth Hormone: recombinant human growth hormone (26 kDa), load molecule | > 100 |  | does not bind hGH with strong affinity |  |  |  |
| Islet Amyloid Polypeptide: Islet Amyloid Polypeptide (IAPP or Amylin; 3.6 kDa), load molecule (KCNTATCATQRLANFLVHSSNNFGAILSSTNVGSNTY; Islet amyloid polypeptide; UniProt P10997 34-70, looked up) | < 900 |  | binds IAPP with strong affinity | 0.9 |  |  |
| Leptin: Leptin (16 kDa), load molecule | < 0.8 |  | binds Leptin with strong affinity |  | 0.7 |  |
| Vasoactive Intestinal Peptide: Vasoactive Intestinal Peptide (VIP), load molecule |  |  | high affinity |  |  | binds VIP with strong affinity |
